The results in this text go back to patent publication US6869968B1, “2-(3H)-oxazolone derivatives and their use as COX-2 inhibitors” (Allmirall Prodesfarma S.A., priority 1996, dated 2005).

The subject of data set [1] is adjuvant arthritis (Mycobacterium tuberculosis in paraffin oil, hind paw). Briefly: Anti-inflammatory activity (adjuvant arthritis), hind paw volume. It counts as in vivo, Male Wistar rats. Particulars: paw volume on day 21. The procedure: Anti-Inflammatory Activity (Adjuvant Arthritis)
Male Wistar rats weighing 175-200 g with free access to food and water were used. On day 0, the animals received an intraplantar injection of a suspension of Mycobacterium tuberculosis in paraffin oil (0.5 mg/rat) on the left hind paw. A group of 8 nonarthritic control rats were injected with paraffin oil alone. On days 11 and 14 after induction of arthritis, the volume of the hind paw of each rat was measured using a water plehysmograph. Animals whose paw volumes increased during that time were selected. Rats were distributed into groups of 8 having equal mean paw volumes and an approximately equal standard deviation.
Test compounds were administered p.o. once daily for 7 days (days 14-20). Nonarthritic and arthritic control rats received vehicle alone for 7 days. The hind paw volumes were measured 20 h after the last dose (on day 21). The body weight was determined every second day.
The results are expressed as the percentage of inhibition of inflammation (paw volume) for each treatment group, considering both the arthritic and nonarthritic vehicle controls. The ANOVA test was used for statistical studies.
(§1) For the in vivo assays all drugs were administered in vehicle (0.1% Tween 80+0.5% methylcellulose in distilled water) in a volume of 5 ml/kg.

For another data set, the target named is T1, Cyclooxygenase-2 (COX-2) (Homo sapiens, UniProt P35354).
T1 construct: Quiescent HUV-EC-C cells were treated with 50 nM TPA for 6 h at 37° C. to induce the COX-2 isoenzyme; endogenous in cells; host or cells: HUV-EC-C human endothelial cell line, passage 19-27, induced with 50 nM TPA/PMA
T1 sequence (P35354 18-604): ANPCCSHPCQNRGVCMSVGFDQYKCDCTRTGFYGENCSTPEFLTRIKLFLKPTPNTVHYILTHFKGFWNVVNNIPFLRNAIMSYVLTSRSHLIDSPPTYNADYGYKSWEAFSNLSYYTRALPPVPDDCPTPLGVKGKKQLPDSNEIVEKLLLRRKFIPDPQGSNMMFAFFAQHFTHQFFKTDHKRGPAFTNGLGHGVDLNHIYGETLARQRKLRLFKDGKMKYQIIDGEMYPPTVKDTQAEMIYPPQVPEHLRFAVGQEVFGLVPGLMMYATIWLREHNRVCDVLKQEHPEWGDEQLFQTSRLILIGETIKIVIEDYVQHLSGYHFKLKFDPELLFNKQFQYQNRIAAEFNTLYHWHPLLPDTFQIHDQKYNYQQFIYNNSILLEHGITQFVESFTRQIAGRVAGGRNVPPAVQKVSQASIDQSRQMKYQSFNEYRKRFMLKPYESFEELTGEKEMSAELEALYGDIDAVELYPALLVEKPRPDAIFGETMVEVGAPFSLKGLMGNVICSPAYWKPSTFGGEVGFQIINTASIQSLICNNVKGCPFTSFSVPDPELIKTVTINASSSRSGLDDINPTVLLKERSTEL
Description: Inhibition of cyclooxygenase-2 (COX-2) activity in HUV-EC-C cell line (prostaglandin E2 ELISA). The format is cell-based. The note with it: for IC50: PMA/TPA-induced HUV-EC-C cells, 50 μM arachidonic acid, mean of three independent experiments, read-out: COX-2 (μM), results expressed as IC50 values; for Ratio COX-1:COX-2: ratio of IC50 COX-1 (platelets) to IC50 COX-2 (HUV-EC-C). The procedure: (§2) For the whole-cell COX-1 and COX-2 assays, stock solutions (10^−3M) of the drugs were dissolved in 50% dimethylsulphoxide, and further dilutions were done with medium.
Inhibition of Cyclooxygenase-2 (COX-2) Activity in HUV-EC-C Cell Line
HUV-EC-C cells were grown on Ham's F12K medium containing 10% fetal bovine serum, 100 μg/ml heparin and 50 μg/ml Endothelial Cell Growth Supplement (ECGS). Experiments were performed with HUV-EC-C passage 19-27. Cells (2×10^4) were seeded onto 96-well plates and made quiescent by removing the growth factor for 48 h before the initiation of the experiments. Quiescent HUV-EC-C cells were treated with 50 nM TPA for 6 h at 37° C. to induce the COX-2 isoenzyme. The cultured medium was then changed and cells were incubated with drugs for 30 min. at 37° C. Arachidonic acid (50 μM) was then added, and the cells were incubated for a further 30 min. The production of prostaglandine E2 in response to arachidonic acid was measured in the supernatants using a solid-phase immunoassay (ELISA). The results are expressed as the mean of the IC50 values obtained from three independent experiments.
(§3) For the whole-cell COX-1 and COX-2 assays stock solutions (10^−3 M) of the drugs wer dissolved in 50% dimethylsulphoxide, and further dilutions were done with medium.
For orientation: In an ELISA, binding on a coated surface is turned into a signal by an enzyme label.

Another data set concerns the target T2, Cyclooxygenase-1 (COX-1) (Homo sapiens, UniProt P23219).
T2 construct: Platelets were isolated from peripheral human blood obtained from healthy donors; endogenous in cells; host or cells: human platelets from peripheral blood of healthy donors
Description: Inhibition of cyclooxygenase-1 (COX-1) activity in human platelets (thromboxane B2 ELISA). The format is cell-based. The note with it: 50 μM arachidonic acid, mean of three independent experiments, read-out: COX-1 (μM), results expressed as IC50 values. The procedure: as §2
Inhibition of Cyclooxygenase-1 (COX-1) Activity in Human Platelets
The blood was anticoagulated with 2 mg/ml sodium EDTA and centrifuged at 180 g for 10 min. at room temperature to obtain platelet-rich plasma. The platelet-rich plasma was centrifuged at 2000 g for 20 min. at 4° C. to obtain a platelet pellet. Cells were washed twice with PBS without […] and resuspended to 5×10^7 cells with Hank's balanced salt solution (HBSS). Platelets (10^7) were preincubated with the drugs for 15 min. at 37° C. and incubations were continued for a further 15 min. in the presence of 50 μM arachidonic acid. The production of tromboxane B2 in response to arachidonic acid was measured in the supernatants using a solid-phase immunoassay (ELISA). The results are expressed as the mean of the IC50 values obtained from three independent experiments.
as §3

Another data set relates to glandular stomach. Description: Ulcerogenic activity (gastric lesion index). The format is in vivo, Male Wistar rat. Particulars: oral route, fasted rats, sacrificed 6 hours after dosage. The procedure: Animals: Male Wistar (Interfauna, U.K., Ltd.) weighing about 120-150 g were used. They were maintained on a 12:12 hour light-dark cycle (lights on at 7:00 a.m.) at room temperature (22±1° C.). The animals were fasted for 18 h prior to the experiment with free access to drinking water.
Procedure: Experiments were performed from 9 to 17 h. The compounds were administered by-the oral route and the animals were sacrificed 6 hours after drugs dosage. The stomach of each rat was removed, opened and gently washed. The macroscopic severity of the erosions was assessed using a parametric scale (Cosen and Mazure), evaluating the number and size of the ulcers in the glandular stomach. Thus, each stomach was classified with an index lesion and compared with the gastrolesivity induced by ketorolac 100 mg/kg p.o., used as a positive standard. The treatments were randomized in each experiment.
as §1

Setting [2] is: 1 mg/kg p.o. once daily for 7 days (days 14-20).

T2 sequence (P23219 24-599): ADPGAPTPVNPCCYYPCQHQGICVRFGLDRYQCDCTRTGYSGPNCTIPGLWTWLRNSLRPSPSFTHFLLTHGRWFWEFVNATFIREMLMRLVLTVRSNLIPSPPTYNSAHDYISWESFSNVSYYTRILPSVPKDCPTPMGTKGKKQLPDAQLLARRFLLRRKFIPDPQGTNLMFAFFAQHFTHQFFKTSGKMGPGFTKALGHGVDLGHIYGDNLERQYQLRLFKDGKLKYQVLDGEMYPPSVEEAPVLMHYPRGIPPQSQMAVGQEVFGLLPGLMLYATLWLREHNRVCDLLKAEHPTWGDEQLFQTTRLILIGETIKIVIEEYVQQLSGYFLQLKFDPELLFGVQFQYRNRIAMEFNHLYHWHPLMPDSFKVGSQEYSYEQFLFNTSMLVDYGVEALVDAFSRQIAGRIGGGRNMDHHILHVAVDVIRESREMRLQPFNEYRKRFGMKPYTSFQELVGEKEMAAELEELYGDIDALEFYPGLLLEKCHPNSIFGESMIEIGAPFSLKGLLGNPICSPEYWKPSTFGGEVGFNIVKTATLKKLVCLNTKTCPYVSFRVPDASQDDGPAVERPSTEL

`CS(=O)(=O)c1ccc(-c2coc(=O)n2-c2ccc(F)cc2)cc1` [Compound 6, 3-(4-fluorophenyl)-4-(4-methylsulfonylphenyl)-2-(3H)-oxazolone]: the “% Inhibition (dose, mg/kg)” value in data set [1] (3 mg/kg p.o. once daily for 7 days (days 14-20)) is on record as 52 (3) %. At Cyclooxygenase-2 (COX-2), the 50% inhibitory concentration (IC50) (commonly the midpoint of a concentration-inhibition curve) was 3.2 µM and the “Ratio COX-1:COX-2” value is 39.6. For the same molecule, at Cyclooxygenase-1 (COX-1), the concentration for half-maximal inhibition (IC50) is 127 µM. In addition, the “UD50” value with glandular stomach is reported as above 100 mg/kg.

For `CS(=O)(=O)c1ccc(-c2coc(=O)n2-c2ccc(Br)cc2)cc1` [Compound 9, 3-(4-bromophenyl)-4-(4-methylsulfonylphenyl)-2-(3H)-oxazolone], the melting point (usually the temperature of the solid-liquid transition) was 217 to 219 °C. At Cyclooxygenase-2 (COX-2), the 50% inhibitory concentration (IC50) was determined as 0.11 µM and the “Ratio COX-1:COX-2” value is above 909. The half-inhibitory concentration (IC50) on Cyclooxygenase-1 (COX-1) is above 100 µM.

`NS(=O)(=O)c1ccc(-c2coc(=O)n2-c2ccc(F)cc2)cc1` [Compound 18, 3-(4-fluorophenyl)-4-(4-aminosulfonylphenyl)-2-(3H)-oxazolone]: in data set [1] (setting [2]), the “% Inhibition (dose, mg/kg)” value is reported as 63 (1) %. Further, on Cyclooxygenase-2 (COX-2), the IC50 came to 0.53 µM and the “Ratio COX-1:COX-2” value is listed as 2.8. Besides, the IC50 at Cyclooxygenase-1 (COX-1) was determined as 1.5 µM.

As to `NS(=O)(=O)c1ccc(-c2coc(=O)n2-c2ccc(Cl)c(Cl)c2)cc1` [Compound 20, 3-(3,4-dichlorophenyl)-4-(4-aminosulphonylphenyl)-2-(3H)-oxazolone], in data set [1] (setting [2]), the “% Inhibition (dose, mg/kg)” value is listed as 67 (1) %. In addition, at Cyclooxygenase-2 (COX-2), the IC50 came out at 0.06 µM and the “Ratio COX-1:COX-2” value is 58.3. Besides, the IC50 at Cyclooxygenase-1 (COX-1) was found to be 3.5 µM. Further, the “UD50” value in the data set with glandular stomach was above 100 mg/kg.

With `NS(=O)(=O)c1ccc(-c2coc(=O)n2-c2ccccc2F)cc1` [Compound 26, 3-(2-fluorophenyl)-4-(4-aminosulphonylphenyl)-2-(3H)-oxazolone], in data set [1] (setting [2]), the “% Inhibition (dose, mg/kg)” value was 65 (1) %. Moreover, on Cyclooxygenase-2 (COX-2), the half-maximal inhibitory concentration (IC50) worked out at 0.0096 µM and the “Ratio COX-1:COX-2” value is given as 2354. Moreover, at Cyclooxygenase-1 (COX-1), the half-inhibitory concentration (IC50) was found to be 22.6 µM. For the same molecule, the “UD50” value with glandular stomach was above 100 mg/kg.

For the molecule `NS(=O)(=O)c1ccc(-c2coc(=O)n2-c2ccc(F)cc2F)cc1` [Compound 27, 3-(2,4-difluorophenyl)-4-(4-aminosulphonylphenyl)-2-(3H)-oxazolone], the “% Inhibition (dose, mg/kg)” value in data set [1] (setting [2]) is listed as 64 (1) %. Moreover, on Cyclooxygenase-2 (COX-2), the half-maximal inhibitory concentration (IC50) was 0.1 µM and the “Ratio COX-1:COX-2” value worked out at 89. On Cyclooxygenase-1 (COX-1), the 50% inhibitory concentration (IC50) was 8.9 µM. The “UD50” value with glandular stomach is above 100 mg/kg.

As to `COc1ccc2c(c1)c(CC(=O)O)c(C)n2C(=O)c1ccc(Cl)cc1` [Indomethacin, 1-(4-chlorobenzoyl)-5-methoxy-2-methylindole-3-acetic acid, reference compound], the “% Inhibition (dose, mg/kg)” value in data set [1] (setting [2]) is 64 (1) %. Besides, in the data set with glandular stomach, the “UD50” value is 17 mg/kg.
